# Source: patent US10285983B2, “3-(1H-pyrrolo[2,3-B]pyridin-2-yl)-1H-pyrazolo[3,4-B] pyridines and therapeutic uses thereof” (Samumed, LLC, priority 2015, dated 2019)
# pEC50: −log10 of the molar value.
# What was measured:
# Format in all cases: cell-based
# [1] = test system: primary human fibroblasts derived from IPF patients (LL29 cells); assay: Inhibition of fibrotic process, αSMA staining in TGF-β1 treated LL29 fibroblasts; details: Fibroblast, 96 h, TGF-β1 20 ng/mL, 4 days; for pEC50: % αSMA positive cells; for inhibition at 10 µM: given for EC50 >10 μM, read-out: percent inhibition at 10 μM
# Text: Representative compounds were screened using primary human fibroblasts (derived from IPF patients) treated with TGF-β1 to determine their ability to inhibit the fibrotic process.
# Primary human fibroblasts derived from IPF patients (LL29 cells) [^1Xiaoqiu Liu, et. al., “Fibrotic Lung Fibroblasts Show Blunted Inhibition by cAMP Due to Deficient cAMP Response Element-Binding Protein Phosphorylation”, Journal of Pharmacology and Experimental Therapeutics (2005), 315(2), 678-687; ^2Watts, K. L., et. al., “RhoA signaling modulates cyclin D1 expression in human lung fibroblasts; implications for idiopathic pulmonary fibrosis”, Respiratory Research (2006), 7(1), 88] were obtained from American Type Culture Collection (ATCC) and expanded in F12 medium supplemented with 15% Fetal Bovine Serum and Penicillin/Streptomycin.
# Each compound was dissolved in DMSO as a 10 mM stock and used to prepare compound source plates. Serial dilution (1:2, 11-point dose-response curves from […] to […]) and compound transfer was performed using the ECHO 550 (Labcyte, Sunnyvale, Calif.) into 384-well clear bottom assay plates (Greiner Bio-One) with appropriate DMSO backfill for a final DMSO concentration of 0.1%. LL29 cells are plated at 1,500 cells/well in 80 μL/well F12 medium supplemented with 1% Fetal Bovine Serum. One hour after addition of the cells, TGF-β1 (Peprotech; 20 ng/mL) was added to the plates to induce fibrosis (ref. 1 and 2 above). Wells treated with TGF-β1 and containing DMSO were used as controls. Cells were incubated at 37° C. and 5% CO2 for 4 days. Following incubation for 4 days, SYTOX green nucleic acid stain (Life Technologies [Thermo Fisher Scientific]) was added to the wells at a final concentration of 1 μM and incubated at room temperature for 30 min. Cells were then fixed using 4% formaldehyde (Electron Microscopy Sciences), washed 3 times with PBS followed by blocking and permeabilization using 3% Bovine Serum Albumin (BSA; Sigma) and 0.3% Triton X-100 (Sigma) in PBS. Cells were then stained with antibody specific to α-smooth muscle actin (αSMA; Abcam) (ref. 1 and 2 above) in 3% Bovine Serum Albumin (BSA; Sigma) and 0.3% Triton X-100 (Sigma) in PBS, and incubated overnight at 4° C. Cells were then washed 3 times with PBS, followed by incubation with Alexa Flor-647 conjugated secondary antibody (Life Technologies [Thermo Fisher Scientific]) and DAPI at room temperature for 1 hour. Cells were then washed 3 times with PBS and plates were sealed for imaging. αSMA staining was imaged by excitation at 630 nm and emission at 665 nm and quantified using the Compartmental Analysis program on the CellInsight CX5 (Thermo Scientific). Dead or apoptotic cells were excluded from analysis based on positive SYTOX green staining. % of total cells positive for αSMA were counted in each well and normalized to the average of 11 wells treated with TGF-β1 on the same plate using Dotmatics' Studies Software. The normalized averages (fold change over untreated) of 3 replicate wells for each compound concentration were used to create dose-responses curves and EC50 values were calculated using non-linear regression curve fit in the Dotmatics' Studies Software. For EC50 of >10 μM, the percent inhibition at 10 μM is provided.
# [2] = test system: SW480 colon cancer cells; assay: Cell viability assay (CellTiter-Blue); details: Homo sapiens, 96 h, four days; for inhibition at 10 µM: given for EC50 >10 μM, read-out: percent inhibition at 10 μM
# Description: Representative compounds were screened using the following assay procedure to assess the effect on cell viability as described below.
# Each compound was dissolved in DMSO as a 10 mM stock and used to prepare compound source plates. Serial dilution (1:3, 8-point dose-response curves from 10 μM to 0.0045 μM) and compound transfer was performed using the ECHO 550 (Labcyte, Sunnyvale, Calif.) into 96-well clear bottom, black-walled plates (Corning-Costar).
# Approximately 2×10^3 SW480 colon cancer cells were seeded into each well and allowed to incubate in the presence or absence of compound for four days at 37° C./5% CO2. Eight replicates of DMSO-treated cells served as controls and cells treated with compound were performed in duplicate.
# After incubation, 20 μL of CellTiter-Blue (Promega) was added to each well allowed to incubate for approximately 3 hours. This reagent was a buffered solution which contains resazurin, metabolically active cells were able to reduce rezarurin (blue) into resorufin (pink) which was highly fluorescent. This measured fluorescence was used as a readout for cell viability.
# After incubation, the plates were read at Ex 560 nm Em 590 nm (Cytation 3, BioTek). Dose-response curves were generated and EC50 concentration values were calculated using non-linear regression curve fit in the GraphPad Prism (San Diego, Calif.) or Dotmatics' Studies Software (Bishops Stortford, UK). For EC50 of >10 μM, the percent inhibition at 10 μM is provided.
# [3] = test system: IL-6 (THP-1 human monocyte cell line); assay: IL-6 inhibition in LPS-stimulated THP-1 cells (HTRF); details: LPS 500 ng/mL; for pEC50: 22 hours, IL6 HTRF; for inhibition at 10 µM: given for EC50 >10 μM, read-out: percent inhibition at 10 μM
# Description: Human monocyte cell line (THP-1 cells; Catalog # TIB-202, ATCC, Manassas, Va.) were cultured in Roswell Park Memorial Institute (RPMI) 1640 Medium (Catalog #21870-100, Buffalo, N.Y.) with 1% L-glutamine, 1% HEPES, 1% Sodium Pyruvate, 2% Sodium Bicarbonate supplemented with 100 units/mL penicillin, 50 μg/mL streptomycin, 2-mercaptoethanol (0.05 mM) [basal medium] and 10% fetal bovine serum (Catalog #16140089, Life Technologies, Carlsbad, Calif.) at 37° C. and 5% CO2.
# THP-1 cells were cultured in basal media with 1% FBS for 24 hours before the start of the assay. Each compound was dissolved in DMSO as a 10 mM stock and used to prepare compound source plates. Serial dilution (1:3, 10-point dose-response curves starting from […]) and compound transfer was performed using the ECHO 550 (Labcyte, Sunnyvale, Calif.) into 384-well white low volume assay plates (Greiner Bio-One) with appropriate DMSO backfill for a final DMSO concentration of 0.1%. THP-1 cells were plated at 5000 cells/well in the 384-well plates and incubated at 37° C. for 2 h. 500 ng/mL of LPS was added after 2 hours and cells were incubated for another 22 hours at 37° C. Plates were spun in a centrifuge for 1 minute at 10,000 rpm and a mixture of anti-IL6 XL665, and anti-IL6 Cryptate diluted in reconstitution buffer (Cisbio Inc.) was added to each well. Following incubation for 3 hrs at room temperature, Homogeneous Time-Resolved Fluorescence (HTRF) was measured using the Envision (Perkin Elmer) at 665 nm and […]. The ratio of fluorescence at 665 nm to 620 nm was used as a readout for IL6 quantification. All samples were processed in duplicate. Readings were normalized to DMSO treated cells and normalized activities were utilized for EC50 calculations using the dose-response log (inhibitor) vs. response—variable slope (four parameters) nonlinear regression feature available in GraphPad Prism 5.0 (or Dotmatics). For EC50 of >10 μM, the percent inhibition at 10 μM is provided.
SMILES,pEC50 [1],pEC50 [2],pEC50 [3],inhibition at 10 µM [2] [%],inhibition at 10 µM [3] [%],inhibition at 10 µM [1] [%]
"O=C(Nc1cncc(-c2cnc3[nH]nc(-c4cc5cccnc5[nH]4)c3c2)c1)C1CCCCC1 [Compound 275, N-(5-(3-(1H-Pyrrolo[2,3-b]pyridin-2-yl)-1H-pyrazolo[3,4-b]pyridin-5-yl)pyridin-3-yl)cyclohexanecarboxamide]",5.81,5.61,7.20,,,
"Oc1cncc(-c2cnc3[nH]nc(-c4cc5c(-c6ccc(F)cc6)ccnc5[nH]4)c3c2)c1 [Compound 533, 5-(3-(4-(4-Fluorophenyl)-1H-pyrrolo[2,3-b]pyridin-2-yl)-1H-pyrazolo[3,4-b]pyridin-5-yl)pyridin-3-ol]",5.17,< 5.00,< 5.00,19,20.7,
"CN(C)CCOc1cncc(-c2cnc3[nH]nc(-c4cc5c(-c6cccnc6)ccnc5[nH]4)c3c2)c1 [Compound 563, N,N-dimethyl-2-((5-(3-(4-(pyridin-3-yl)-1H-pyrrolo[2,3-b]pyridin-2-yl)-1H-pyrazolo[3,4-b]pyridin-5-yl)pyridin-3-yl)oxy)ethan-1-amine]",5.61,< 5.00,< 5.00,5.3,18.7,
"CC(C)C(=O)Nc1cncc(-c2cnc3[nH]nc(-c4cc5c(-c6ccccc6F)ccnc5[nH]4)c3c2)c1 [Compound 65, N-(5-(3-(4-(2-Fluorophenyl)-1H-pyrrolo[2,3-b]pyridin-2-yl)-1H-pyrazolo [3,4-b]pyridin-5-yl)pyridin-3-yl)isobutyramide]",6.09,< 5.00,< 5.00,32.1,25.6,
"CN1CCN(c2ccnc3[nH]c(-c4n[nH]c5ncc(-c6cncc(NC(=O)C7CCCCC7)c6)cc45)cc23)CC1 [Compound 247, N-(5-(3-(4-(4-Methylpiperazin-1-yl)-1H-pyrrolo[2,3-b]pyridin-2-yl)-1H-pyrazolo[3,4-b]pyridin-5-yl)pyridin-3-yl)cyclohexanecarboxamide]",5.30,< 5.00,6.30,11.7,,
"CCCC(=O)Nc1cncc(-c2cnc3[nH]nc(-c4cc5c(N6CCCCC6)ccnc5[nH]4)c3c2)c1 [Compound 185, N-(5-(3-(4-(Piperidin-1-yl)-1H-pyrrolo[2,3-b]pyridin-2-yl)-1H-pyrazolo[3,4-b]pyridin-5-yl)pyridin-3-yl)butyramide]",< 5.00,< 5.00,< 5.00,4.9,41.2,0
"O=C(Nc1cncc(-c2cnc3[nH]nc(-c4cc5c(-c6ccncc6)ccnc5[nH]4)c3c2)c1)C1CCCCC1 [Compound 135, N-(5-(3-(4-(Pyridin-4-yl)-1H-pyrrolo[2,3-b]pyridin-2-yl)-1H-pyrazolo[3,4-b]pyridin-5-yl)pyridin-3-yl)cyclohexanecarboxamide]",< 5.00,< 5.00,< 5.00,13.9,37.7,19.8
"O=C(Nc1cncc(-c2cnc3[nH]nc(-c4cc5c(-c6cccs6)ccnc5[nH]4)c3c2)c1)C1CC1 [Compound 356, N-(5-(3-(4-(Thiophen-2-yl)-1H-pyrrolo[2,3-b]pyridin-2-yl)-1H-pyrazolo[3,4-b]pyridin-5-yl)pyridin-3-yl)cyclopropanecarboxamide]",< 5.00,< 5.00,6.55,14.5,,0
"Fc1ccc(-c2ccnc3[nH]c(-c4n[nH]c5ncc(-c6cncnc6)cc45)cc23)cc1 [Compound 55, 3-(4-(4-Fluorophenyl)-1H-pyrrolo[2,3-b]pyridin-2-yl)-5-(pyrimidin-5-yl)-1H-pyrazolo[3,4-b]pyridine]",< 5.00,< 5.00,< 5.00,3.5,32.2,1.8
"CN(C)Cc1cncc(-c2cnc3[nH]nc(-c4cc5c(N6CCCCC6)ccnc5[nH]4)c3c2)c1 [Compound 181, N,N-Dimethyl-1-(5-(3-(4-(piperidin-1-yl)-1H-pyrrolo[2,3-b]pyridin-2-yl)-1H-pyrazolo[3,4-b]pyridin-5-yl)pyridin-3-yl)methanamine]",8.15,< 5.00,8.15,40.9,,
"CN(C)c1cncc(-c2cnc3[nH]nc(-c4cc5c(-c6ccccc6F)ccnc5[nH]4)c3c2)c1 [Compound 63, 5-(3-(4-(2-Fluorophenyl)-1H-pyrrolo[2,3-b]pyridin-2-yl)-1H-pyrazolo[3,4-b]pyridin-5-yl)-N,N-dimethylpyridin-3-amine]",< 5.00,< 5.00,< 5.00,16.1,11.3,0
"c1cnc2[nH]c(-c3n[nH]c4ncc(-c5ccncc5)cc34)cc2c1 [Compound 270, 5-(Pyridin-4-yl)-3-(1H-pyrrolo[2,3-b]pyridin-2-yl)-1H-pyrazolo[3,4-b]pyridine]",< 5.00,< 5.00,5.33,23.9,,55.6
